Source: US9417241B2, “5, 10, 15, 20-tetrakis (carboxyphenyl) porphine (TCPP) and kit for use with detecting cancer” (bioAffinity Technologies, Inc., priority 2000, dated 2016)

System: sputum cells (dysplastic, pre-cancerous and cancerous cells)
Assay: Glass slide assay for detection of pre-cancerous and cancerous cells with TCPP (fluorescence microscopy of sputum monolayer slides vs PAP-stain cytomorphology)
Format: cell-based, human
Settings: for Slides with morphology using TCPP/Slides with morphology using cytomorphology: N = 60 blinded sputum samples, 40 μg/mL TCPP
[1] = of the six TCPP samples with class 11 designation

## O=C(O)c1ccc(-c2c3nc(c(-c4ccc(C(=O)O)cc4)c4ccc([nH]4)c(-c4ccc(C(=O)O)cc4)c4nc(c(-c5ccc(C(=O)O)cc5)c5ccc2[nH]5)C=C4)C=C3)cc1 [TCPP]
9 = Degenerated cell clusters, medium to high fluorescence, Moderate dysplasia (n = 9)
  Number of Samples with Cells having Numerical Description by TCPP Fluorescence Microscopy/Number of Samples with Cell Description by Cytmorphology: 0/9
9 = Degenerated cell clusters, medium to high fluorescence, Negative or metaplastic (n = 10)
  Number of Samples with Cells having Numerical Description by TCPP Fluorescence Microscopy/Number of Samples with Cell Description by Cytmorphology: 0/10
9 = Degenerated cell clusters, medium to high fluorescence, Severe dysplasia (n = 8)
  Number of Samples with Cells having Numerical Description by TCPP Fluorescence Microscopy/Number of Samples with Cell Description by Cytmorphology: 0/8
10 = Cells uniform size with small round nucleus, medium fluorescence (nucleus only), Adenicarcinoma, squamous cell and small cell carcinoma (n = 10)
  Number of Samples with Cells having Numerical Description by TCPP Fluorescence Microscopy/Number of Samples with Cell Description by Cytmorphology: 2/10
10 = Cells uniform size with small round nucleus, medium fluorescence (nucleus only), Carcinoma in situ (n = 11)
  Number of Samples with Cells having Numerical Description by TCPP Fluorescence Microscopy/Number of Samples with Cell Description by Cytmorphology: 1/11
10 = Cells uniform size with small round nucleus, medium fluorescence (nucleus only), Mild dysplasia (n = 12)
  Number of Samples with Cells having Numerical Description by TCPP Fluorescence Microscopy/Number of Samples with Cell Description by Cytmorphology: 2/12
10 = Cells uniform size with small round nucleus, medium fluorescence (nucleus only), Moderate dysplasia (n = 9)
  Number of Samples with Cells having Numerical Description by TCPP Fluorescence Microscopy/Number of Samples with Cell Description by Cytmorphology: 2/9
10 = Cells uniform size with small round nucleus, medium fluorescence (nucleus only), Negative or metaplastic (n = 10)
  Number of Samples with Cells having Numerical Description by TCPP Fluorescence Microscopy/Number of Samples with Cell Description by Cytmorphology: 2/10
10 = Cells uniform size with small round nucleus, medium fluorescence (nucleus only), Severe dysplasia (n = 8)
  Number of Samples with Cells having Numerical Description by TCPP Fluorescence Microscopy/Number of Samples with Cell Description by Cytmorphology: 1/8
11 = Cell membrane barely visible, medium fluorescence, Adenicarcinoma, squamous cell and small cell carcinoma (n = 10)
  Number of Samples with Cells having Numerical Description by TCPP Fluorescence Microscopy/Number of Samples with Cell Description by Cytmorphology: 0/10
11 = Cell membrane barely visible, medium fluorescence, Carcinoma in situ (n = 11)
  Number of Samples with Cells having Numerical Description by TCPP Fluorescence Microscopy/Number of Samples with Cell Description by Cytmorphology: 2/11
11 = Cell membrane barely visible, medium fluorescence, Mild dysplasia (n = 12)
  Number of Samples with Cells having Numerical Description by TCPP Fluorescence Microscopy/Number of Samples with Cell Description by Cytmorphology: 6/12
11 = Cell membrane barely visible, medium fluorescence, Moderate dysplasia (n = 9)
  Number of Samples with Cells having Numerical Description by TCPP Fluorescence Microscopy/Number of Samples with Cell Description by Cytmorphology: 2/9
11 = Cell membrane barely visible, medium fluorescence, Negative or metaplastic (n = 10)
  Number of Samples with Cells having Numerical Description by TCPP Fluorescence Microscopy/Number of Samples with Cell Description by Cytmorphology: 6/10
11 = Cell membrane barely visible, medium fluorescence, Severe dysplasia (n = 8)
  Number of Samples with Cells having Numerical Description by TCPP Fluorescence Microscopy/Number of Samples with Cell Description by Cytmorphology: 2/8
12 = Nuclear debris clumps, no fluorescence, Adenicarcinoma, squamous cell and small cell carcinoma (n = 10)
  Number of Samples with Cells having Numerical Description by TCPP Fluorescence Microscopy/Number of Samples with Cell Description by Cytmorphology: 0/10
12 = Nuclear debris clumps, no fluorescence, Carcinoma in situ (n = 11)
  Number of Samples with Cells having Numerical Description by TCPP Fluorescence Microscopy/Number of Samples with Cell Description by Cytmorphology: 0/11
12 = Nuclear debris clumps, no fluorescence, Mild dysplasia (n = 12)
  Number of Samples with Cells having Numerical Description by TCPP Fluorescence Microscopy/Number of Samples with Cell Description by Cytmorphology: 1/12
12 = Nuclear debris clumps, no fluorescence, Moderate dysplasia (n = 9)
  Number of Samples with Cells having Numerical Description by TCPP Fluorescence Microscopy/Number of Samples with Cell Description by Cytmorphology: 0/9
12 = Nuclear debris clumps, no fluorescence, Negative or metaplastic (n = 10)
  Number of Samples with Cells having Numerical Description by TCPP Fluorescence Microscopy/Number of Samples with Cell Description by Cytmorphology: 0/10
12 = Nuclear debris clumps, no fluorescence, Severe dysplasia (n = 8)
  Number of Samples with Cells having Numerical Description by TCPP Fluorescence Microscopy/Number of Samples with Cell Description by Cytmorphology: 0/8
13 = Nuclear debris background, no fluorescence, Adenicarcinoma, squamous cell and small cell carcinoma (n = 10)
  Number of Samples with Cells having Numerical Description by TCPP Fluorescence Microscopy/Number of Samples with Cell Description by Cytmorphology: 3/10
13 = Nuclear debris background, no fluorescence, Carcinoma in situ (n = 11)
  Number of Samples with Cells having Numerical Description by TCPP Fluorescence Microscopy/Number of Samples with Cell Description by Cytmorphology: 5/11
13 = Nuclear debris background, no fluorescence, Mild dysplasia (n = 12)
  Number of Samples with Cells having Numerical Description by TCPP Fluorescence Microscopy/Number of Samples with Cell Description by Cytmorphology: 5/12
13 = Nuclear debris background, no fluorescence, Moderate dysplasia (n = 9)
  Number of Samples with Cells having Numerical Description by TCPP Fluorescence Microscopy/Number of Samples with Cell Description by Cytmorphology: 8/9
13 = Nuclear debris background, no fluorescence, Negative or metaplastic (n = 10)
  Number of Samples with Cells having Numerical Description by TCPP Fluorescence Microscopy/Number of Samples with Cell Description by Cytmorphology: 6/10
13 = Nuclear debris background, no fluorescence, Severe dysplasia (n = 8)
  Number of Samples with Cells having Numerical Description by TCPP Fluorescence Microscopy/Number of Samples with Cell Description by Cytmorphology: 2/8
14 = Nuclear debris background, medium fluorescence, Adenicarcinoma, squamous cell and small cell carcinoma (n = 10)
  Number of Samples with Cells having Numerical Description by TCPP Fluorescence Microscopy/Number of Samples with Cell Description by Cytmorphology: 0/10
14 = Nuclear debris background, medium fluorescence, Carcinoma in situ (n = 11)
  Number of Samples with Cells having Numerical Description by TCPP Fluorescence Microscopy/Number of Samples with Cell Description by Cytmorphology: 1/11
14 = Nuclear debris background, medium fluorescence, Mild dysplasia (n = 12)
  Number of Samples with Cells having Numerical Description by TCPP Fluorescence Microscopy/Number of Samples with Cell Description by Cytmorphology: 2/12
14 = Nuclear debris background, medium fluorescence, Moderate dysplasia (n = 9)
  Number of Samples with Cells having Numerical Description by TCPP Fluorescence Microscopy/Number of Samples with Cell Description by Cytmorphology: 2/9
14 = Nuclear debris background, medium fluorescence, Negative or metaplastic (n = 10)
  Number of Samples with Cells having Numerical Description by TCPP Fluorescence Microscopy/Number of Samples with Cell Description by Cytmorphology: 1/10
14 = Nuclear debris background, medium fluorescence, Severe dysplasia (n = 8)
  Number of Samples with Cells having Numerical Description by TCPP Fluorescence Microscopy/Number of Samples with Cell Description by Cytmorphology: 1/8
Adenicarcinoma, squamous cell and small cell carcinoma (n = 10)
  Avg. # numerical descriptions per cell examined: 4.90
Adenocarcinoma, squamous cell and small cell carcinoma
  Slides with morphology using TCPP/Slides with morphology using cytomorphology: 10/10
Carcinoma in situ (n = 11)
  Avg. # numerical descriptions per cell examined: 4.82
Carcinoma in situ
  Slides with morphology using TCPP/Slides with morphology using cytomorphology: 11/11
Mild dysplasia (n = 12)
  Avg. # numerical descriptions per cell examined: 3.08
Mild dysplasia
  Slides with morphology using TCPP/Slides with morphology using cytomorphology: 12/12
Moderate dysplasia (n = 9)
  Avg. # numerical descriptions per cell examined: 4.11
Moderate dysplasia
  Slides with morphology using TCPP/Slides with morphology using cytomorphology: 9/9
Negative or metaplastic (n = 10)
  Avg. # numerical descriptions per cell examined: 1.80
Negative or metaplastic, 10 minutes, 36° C.
  Slides with morphology using TCPP/Slides with morphology using cytomorphology: 4/10
Severe dysplasia (n = 8)
  Avg. # numerical descriptions per cell examined: 3.13
Severe dysplasia
  Slides with morphology using TCPP/Slides with morphology using cytomorphology: 8/8
Among the ten samples characterized as normal or metaplastic by PAP-staining
  Samples demonstrating the same morphology using the TCPP method: four
Blinded study, 60 samples
  Sputum samples mildly dysplastic to cancerous by PAP-staining also identified as abnormal by TCPP detection: Fifty out of fifty
Cells displaying adenicarcinoma, squamous cell and small cell carcinoma
  Average number of numerical classifications assigned: 5
Cells having a negative or metaplastic morphology
  Average number of numerical classifications assigned: 2
[1]
  Samples also indicating fluorescence from nuclear debris (class 13 or 14): three
  Samples also showing class 10 designation (fluorescence from the nucleus only): two
Of the ten cell samples negative or metaplastic by PAP-staining
  Samples designated with a class 11 cell description based on TCPP fluorescence: 6
Samples diagnosed as normal
  TCPP uptake: minimal or no TCPP uptake
Sputum monolayer slides
  TCPP-exposed cells fluorescing at which the sample reliably correlated with at least the mildly dysplastic diagnosis: 2-3%
